Data reported in US20030144310A1 (priority 2001, published 2003).
Read-outs that look alike come from different tables or passages of the source.

Legend:
[1] = target: T1, rNPFF-1 (Rattus norvegicus, UniProt Q9EP86); test: Radioligand binding assay, competitive displacement of [125I]1DMeNPFF at cloned NPFF receptors; settings: cloned rat receptor
T1 construct: expressed in transfected cells

[2] = target: T2, rNPFF-2 (Rattus norvegicus, UniProt Q9EQD2); test: Functional activity (EC50 and intrinsic activity relative to NPFF); format: cell-based; settings: for Functional Activity rNPFF-2 I.A. %: intrinsic activity as percentage of maximal response by NPFF
T2 construct: expressed in transfected cells
Excerpt: (§1) The data shown are representative of at least two independent experiments.

[3] = target: T1, rNPFF-1; test: as above; format: cell-based; settings: for Functional Activity rNPFF-1 I.A. %: intrinsic activity as percentage of maximal response by NPFF; for EC50: tested 0.001 nM to 3600 nM
Excerpt: as §1

[4] = target: T2, rNPFF-2; test: Radioligand binding assay, competitive displacement of [125I]1DMeNPFF at cloned NPFF receptors; settings: cloned rat receptor
[5] = tested 0.001 nM to 3600 nM, read-out: Functional Activity rNPFF-2 EC50
[6] = rat cloned NPFF receptors, by IA and Ki

T1 sequence (Q9EP86 whole entry): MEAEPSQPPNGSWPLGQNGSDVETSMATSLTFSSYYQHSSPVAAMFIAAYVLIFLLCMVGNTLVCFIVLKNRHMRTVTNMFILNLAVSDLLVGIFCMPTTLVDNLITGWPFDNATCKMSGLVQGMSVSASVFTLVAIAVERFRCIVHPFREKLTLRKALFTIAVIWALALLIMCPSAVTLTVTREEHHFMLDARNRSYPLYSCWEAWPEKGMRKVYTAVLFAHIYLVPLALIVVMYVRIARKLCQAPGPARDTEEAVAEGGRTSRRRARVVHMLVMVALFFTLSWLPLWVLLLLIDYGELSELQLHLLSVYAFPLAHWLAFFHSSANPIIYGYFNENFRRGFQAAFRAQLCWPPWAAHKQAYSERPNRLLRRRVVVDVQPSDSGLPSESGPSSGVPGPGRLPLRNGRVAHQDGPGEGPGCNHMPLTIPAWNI
T2 sequence (Q9EQD2 whole entry): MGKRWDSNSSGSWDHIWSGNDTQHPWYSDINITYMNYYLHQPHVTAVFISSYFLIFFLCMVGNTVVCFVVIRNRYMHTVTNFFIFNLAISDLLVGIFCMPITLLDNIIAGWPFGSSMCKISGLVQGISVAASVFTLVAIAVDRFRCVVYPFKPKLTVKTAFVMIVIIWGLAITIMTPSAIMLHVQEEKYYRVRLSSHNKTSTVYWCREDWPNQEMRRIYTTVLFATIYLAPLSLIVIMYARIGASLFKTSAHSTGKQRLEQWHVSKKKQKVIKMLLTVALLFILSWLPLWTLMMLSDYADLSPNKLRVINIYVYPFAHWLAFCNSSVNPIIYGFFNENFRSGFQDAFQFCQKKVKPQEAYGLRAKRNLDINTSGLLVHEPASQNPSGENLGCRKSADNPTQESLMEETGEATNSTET

| SMILES | Ki [1] [nM] | Functional Activity rNPFF-2 I.A. % [2] [%] | EC50 [2, 5] [nM] | Functional Activity rNPFF-1 I.A. % [3] [%] | EC50 [3] [nM] | Ki [4] [nM] | classification agonist/antagonist at NPFF2 receptors [2, 6] | classification agonist/antagonist at NPFF1 receptors [3, 6] | EC50 [2] [nM] |
| --- | --- | --- | --- | --- | --- | --- | --- | --- | --- |
| COc1ccc(S(=O)(=O)N[C@@H](CCCNC(=N)N)C(=O)N[C@@H](Cc2ccccc2)C(N)=O)cc1OC [Compound 1015] | 462 | 74 | 1810 | 84 | 140 | > 10000 | – | – | – |
| Cc1ccc(S(=O)(=O)N[C@@H](CCCNC(=N)N)C(=O)N[C@@H](Cc2ccccc2)C(N)=O)cc1 [Compound 1007] | 756 | 55 | 2300 | 79 | 286 | 3080 | – | – | – |
| N=C(N)NCCC[C@H](NS(=O)(=O)c1c(F)cccc1F)C(=O)N[C@@H](Cc1ccccc1)C(N)=O [Compound 1004] | 173 | 43 | – | 79 | 117 | 1450 | – | – | – |
| N=C(N)NCCC[C@H](NS(=O)(=O)c1ccc(C(F)(F)F)cc1[N+](=O)[O-])C(=O)N[C@@H](Cc1ccccc1)C(N)=O [Compound 1018] | 1950 | 10 | 5620 | 21 | > 3160 | 4430 | – | – | – |
| COc1ccc(S(=O)(=O)N[C@@H](CCCNC(=N)N)C(=O)N[C@@H](Cc2ccccc2)C(N)=O)cc1 [Compound 1009] | 321 | – | – | – | – | 1090 | – | – | – |
| COc1ccc(Br)cc1S(=O)(=O)N[C@@H](CCCNC(=N)N)C(=O)N[C@@H](Cc1ccccc1)C(N)=O [Compound 1025] | 328 | 33 | > 3160 | 78 | 596 | 4120 | – | – | – |
| N=C(N)NCCC[C@H](NS(=O)(=O)c1ccc2ccccc2c1)C(=O)N[C@H](Cc1ccccc1)C(N)=O [Compound 1029] | 399 | 86 | > 3160 | 30 | 477 | 2690 | – | – | – |
| N=C(N)NCCC[C@H](NS(=O)(=O)Cc1ccccc1)C(=O)N[C@@H](Cc1ccccc1)C(N)=O [Compound 1011, N1-[(1S)-2-Amino-1-benzyl-2-oxoethyl]-(25)-5-[amino(imino)methyl]amino-2-[(benzylsulfonyl)amino]pentanamide] | 5960 | 62 | 1340 | 74 | 765 | > 10000 | – | – | – |
| N=C(N)NCCC[C@@H](NS(=O)(=O)c1cccc2ccccc12)C(=O)N[C@@H](Cc1ccccc1)C(N)=O [Compound 3001] | 46 | 79 | 378 | 1 | > 10000 | 2860 | agonist (an agonist has an intrinsic activity (IA)>15%) | antagonist (an antagonist has a Ki≦1.2 μM and an intrinsic activity (IA)≦15%) | – |
| N=C(N)NCCC[C@H](NS(=O)(=O)c1cc(Cl)ccc1Cl)C(=O)N[C@@H](Cc1ccccc1)C(N)=O [Compound 1021] | 335 | 59 | 2330 | 78 | 1030 | 2030 | – | – | – |
| N=C(N)NCCC[C@H](NS(=O)(=O)c1c(Cl)cccc1Cl)C(=O)N[C@@H](Cc1ccccc1)C(N)=O [Compound 1019] | 815 | 45 | > 3160 | 56 | 2200 | 3370 | – | – | – |
| N=C(N)NCCC[C@H](NS(=O)(=O)c1cc(Cl)sc1Cl)C(=O)N[C@@H](Cc1ccccc1)C(N)=O [Compound 1020] | 1950 | 02 | > 10000 | 01 | > 10000 | 5150 | – | – | – |
| N=C(N)NCCC[C@H](NS(=O)(=O)c1cccs1)C(=O)N[C@@H](Cc1ccccc1)C(N)=O [Compound 1013] | 211 | 42 | > 3160 | 80 | 135 | 6390 | – | – | – |
| N=C(N)NCCC[C@H](NS(=O)(=O)c1ccc([N+](=O)[O-])cc1[N+](=O)[O-])C(=O)N[C@@H](Cc1ccccc1)C(N)=O [Compound 2002] | 1390 | 05 | – | 34 | – | 5490 | – | – | > 10000 |
| N#Cc1cccc(S(=O)(=O)N[C@@H](CCCNC(=N)N)C(=O)N[C@@H](Cc2ccccc2)C(N)=O)c1 [Compound 1023] | 496 | 28 | > 3160 | 90 | 166 | 9920 | – | – | – |
| COc1ccc(C)cc1S(=O)(=O)N[C@@H](CCCNC(=N)N)C(=O)N[C@@H](Cc1ccccc1)C(N)=O [Compound 2003] | – | 52 | > 3160 | 102 | – | > 10000 | – | – | – |

| SMILES | Ki [1] [nM] | Functional Activity rNPFF-2 I.A. % [2] [%] | EC50 [2, 5] [nM] | Functional Activity rNPFF-1 I.A. % [3] [%] | EC50 [3] [nM] | Ki [4] [nM] | classification agonist/antagonist at NPFF2 receptors [2, 6] | classification agonist/antagonist at NPFF1 receptors [3, 6] | EC50 [2] [nM] |
| --- | --- | --- | --- | --- | --- | --- | --- | --- | --- |
| N=C(N)NCCC[C@@H](NS(=O)(=O)c1ccccc1Br)C(=O)N[C@@H](Cc1ccccc1)C(N)=O [Compound 1030] | – | 71 | – | – | – | – | – | – | – |
| N=C(N)NCCC[C@H](NS(=O)(=O)c1ccc(F)cc1)C(=O)N[C@@H](Cc1ccccc1)C(N)=O [Compound 1005] | 150 | 46 | 3500 | 71 | 104 | 1370 | – | – | – |
| N=C(N)NCCC[C@H](NS(=O)(=O)c1ccccc1)C(=O)N[C@@H](Cc1ccccc1)C(N)=O [Compound 1008] | 321 | 20 | 5620 | 70 | 4700 | 4410 | – | – | – |
| N=C(N)NCCC[C@H](NS(=O)(=O)c1c(F)cccc1F)C(=O)N[C@H](Cc1ccccc1)C(N)=O [Compound 1032] | 1290 | 61 | 2760 | 47 | 644 | > 10000 | – | – | – |
| N=C(N)NCCC[C@H](NS(=O)(=O)c1ccc(F)cc1)C(=O)N[C@H](Cc1ccccc1)C(N)=O [Compound 1033] | 458 | 57 | 1940 | 42 | 1600 | > 10000 | – | – | – |
| N=C(N)NCCC[C@H](NS(=O)(=O)c1ccc(Cl)cc1Cl)C(=O)N[C@@H](Cc1ccccc1)C(N)=O [Compound 1010] | 871 | 28 | 2980 | 85 | 594 | 1860 | – | – | – |
| N=C(N)NCCC[C@H](NS(=O)(=O)c1ccc(Cl)cc1)C(=O)N[C@@H](Cc1ccccc1)C(N)=O [Compound 1006] | 266 | 43 | 3720 | 75 | 151 | 1010 | – | – | – |
| N=C(N)NCCC[C@H](NS(=O)(=O)c1ccc2ccccc2c1)C(=O)N[C@@H](Cc1ccccc1)C(N)=O [Compound 1014, N1-[(1S)-2-Amino-1-benzyl-2-oxoethyl]-(2S)-(5-guanidino)-2-[(2-naphthylsulfonyl)amino]pentanamide] | 314 | 73 | 906 | 74 | 52 | 2780 | – | – | – |
| N=C(N)NCCC[C@H](NS(=O)(=O)c1ccc(Cl)c([N+](=O)[O-])c1)C(=O)N[C@@H](Cc1ccccc1)C(N)=O [Compound 1016] | 151 | 81 | 660 | 72 | 62 | 2090 | – | – | – |
| N=C(N)NCCC[C@H](NS(=O)(=O)c1ccc([N+](=O)[O-])cc1)C(=O)N[C@@H](Cc1ccccc1)C(N)=O [Compound 1003] | 732 | 44 | 1870 | 74 | 149 | 2610 | – | – | – |
| N=C(N)NCCC[C@H](NS(=O)(=O)c1ccc(I)cc1)C(=O)N[C@@H](Cc1ccccc1)C(N)=O [Compound 1012] | 1430 | 93 | 1420 | 71 | 358 | 2920 | – | – | – |
| N=C(N)NCCC[C@H](NS(=O)(=O)c1ccc(Cl)c(Cl)c1)C(=O)N[C@@H](Cc1ccccc1)C(N)=O [Compound 1022] | – | 34 | > 3160 | 86 | 1860 | – | – | – | – |
| N=C(N)NCCC[C@H](NS(=O)(=O)c1ccccc1[N+](=O)[O-])C(=O)N[C@@H](Cc1ccccc1)C(N)=O [Compound 1026] | 535 | 59 | > 3160 | 79 | 412 | 3500 | – | – | – |
| N=C(N)NCCC[C@@H](NS(=O)(=O)c1ccc(F)cc1)C(=O)N[C@@H](Cc1ccccc1)C(N)=O [Compound 1028] | 1280 | 62 | 1580 | – | 404 | 8060 | – | – | – |
| N=C(N)NCCC[C@H](NS(=O)(=O)c1ccccc1Br)C(=O)N[C@@H](Cc1ccccc1)C(N)=O [Compound 2001] | – | 09 | – | – | – | – | – | – | – |
